{"source": "ChEMBL document CHEMBL1127364", "about": "“L-735,524: the design of a potent and orally bioavailable HIV protease inhibitor” (J Med Chem, 1994)", "key": {"MT4 [1]": {"test_system": "MT4", "experiment": "Compound was evaluated for the inhibition of the spread of HIV-1 IIIb infection in MT-4 human T-lymphoid cells; value ranges from […]-[…] nM", "assay_type": "functional", "details": "read-out: CIC95"}, "[2]": {"experiment": "Partition coefficient of the compound was evaluated", "assay_type": "physicochemical", "details": "octanol/water"}, "[3]": {"molecular_target": "Human immunodeficiency virus type 1 protease (Human immunodeficiency virus 1, UniProt Q72874)", "experiment": "Evaluated for the inhibition of HIV protease"}, "[4]": {"experiment": "Compound was evaluated for maximum plasma concentration levels in dogs at 10 mg/kg (in 0.05M citric acid solution) po", "details": "dog"}, "[5]": {"experiment": "Compound was evaluated for the solubility at pH value of 7.4", "assay_type": "physicochemical", "details": "pH 7.4"}, "[6]": {"molecular_target": "Human immunodeficiency virus type 1 protease (Human immunodeficiency virus 1) (UniProt Q72874)", "experiment": "Inhibition of the spread of HIV-1 IIIb infection in MT-4 human T-lymphoid cells", "assay_type": "functional, cell-based"}, "MT4 [7]": {"test_system": "MT4", "experiment": "Compound was evaluated for the inhibition of the spread of HIV-1 IIIb infection in MT-4 human T-lymphoid cells; value ranges from 25-100 nM", "assay_type": "functional", "details": "read-out: CIC95"}, "MT4 [8]": {"test_system": "MT4", "experiment": "Compound was evaluated for the inhibition of the spread of HIV-1 IIIb infection in MT-4 human T-lymphoid cells; value ranges from 25-50 nM", "assay_type": "functional", "details": "read-out: CIC95"}, "MT4 [9]": {"test_system": "MT4", "experiment": "Compound was evaluated for the inhibition of the spread of HIV-1 IIIb infection in MT-4 human T-lymphoid cells; value ranges from 50-100 nM", "assay_type": "functional", "details": "read-out: CIC95"}}, "note": "pIC50: −log10 of the molar value.", "data": [{"compound": "CC(C)(C)NC(=O)[C@@H]1CN(S(=O)(=O)c2cccc3cccnc23)CCN1C[C@@H](O)C[C@@H](Cc1ccccc1)C(=O)N[C@@H]1c2ccccc2C[C@H]1O", "values": [{"measurement": "IC95", "setting": "MT4 [1]", "result": 12.5, "unit": "nM"}, {"measurement": "logP", "setting": "[2]", "result": 3.7}, {"measurement": "pIC50", "setting": "[3]", "result": 10.89}, {"measurement": "Cmax", "setting": "[4]", "result": "< 100", "unit": "nM"}, {"measurement": "solubility", "setting": "[5]", "result": "< 1", "unit": "µg/mL"}]}, {"compound": "CC(C)(C)NC(=O)[C@@H]1CNCCN1C[C@@H](O)C[C@@H](Cc1ccccc1)C(=O)N[C@@H]1c2ccccc2C[C@H]1O", "values": [{"measurement": "IC95", "setting": "[6]", "result": 3000, "unit": "nM"}, {"measurement": "pIC50", "setting": "[3]", "result": 7.42}]}, {"compound": "Cc1nc(S(=O)(=O)N2CCN(C[C@@H](O)C[C@@H](Cc3ccccc3)C(=O)N[C@@H]3c4ccccc4C[C@H]3O)[C@H](C(=O)NC(C)(C)C)C2)c(C)s1", "values": [{"measurement": "IC95", "setting": "[6]", "result": 200, "unit": "nM"}, {"measurement": "pIC50", "setting": "[3]", "result": 9.80}]}, {"compound": "CC(C)(C)NC(=O)[C@@H]1CC2CCCCC2CN1C[C@@H](O)C[C@@H](Cc1ccccc1)C(=O)N[C@@H]1c2ccccc2C[C@H]1O", "note": "(some centres undefined)", "values": [{"measurement": "IC95", "setting": "[6]", "result": 400, "unit": "nM"}, {"measurement": "pIC50", "setting": "[3]", "result": 8.11}]}, {"compound": "CC(C)(C)NC(=O)[C@@H]1CN(S(=O)(=O)c2cccnc2)CCN1C[C@@H](O)C[C@@H](Cc1ccccc1)C(=O)N[C@@H]1c2ccccc2C[C@H]1O", "values": [{"measurement": "IC95", "setting": "[6]", "result": 200, "unit": "nM"}, {"measurement": "pIC50", "setting": "[3]", "result": 9.52}]}, {"compound": "CC(C)(C)NC(=O)[C@@H]1CN(Cc2cccnc2)CCN1C[C@@H](O)C[C@@H](Cc1ccccc1)C(=O)NC1c2ccccc2C[C@H]1O.O", "note": "(single isomer, unassigned)", "values": [{"measurement": "logP", "setting": "[2]", "result": 2.92}, {"measurement": "Cmax", "setting": "[4]", "result": 11400, "unit": "nM"}, {"measurement": "IC95", "setting": "MT4 [7]", "result": 25, "unit": "nM"}]}, {"compound": "CC(C)(C)NC(=O)[C@@H]1CN(Cc2ccccc2S)CCN1C[C@@H](O)C[C@@H](Cc1ccccc1)C(=O)N[C@@H]1c2ccccc2C[C@H]1O", "values": [{"measurement": "IC95", "setting": "[6]", "result": 25, "unit": "nM"}, {"measurement": "pIC50", "setting": "[3]", "result": 9.27}]}, {"compound": "CC(C)(C)NC(=O)[C@@H]1CN(Cc2ccc(F)cc2F)CCN1C[C@@H](O)C[C@@H](Cc1ccccc1)C(=O)N[C@@H]1c2ccccc2C[C@H]1O", "values": [{"measurement": "logP", "setting": "[2]", "result": 3.69}, {"measurement": "pIC50", "setting": "[3]", "result": 9.51}, {"measurement": "IC95", "setting": "MT4 [8]", "result": 25, "unit": "nM"}, {"measurement": "Cmax", "setting": "[4]", "result": 730, "unit": "nM"}]}, {"compound": "CC(C)(C)NC(=O)[C@@H]1CN(C(=O)OCc2ccccc2)CCN1C[C@@H](O)C[C@@H](Cc1ccccc1)C(=O)NC1c2ccccc2C[C@H]1O", "note": "(single isomer, unassigned)", "values": [{"measurement": "logP", "setting": "[2]", "result": 4.67}, {"measurement": "IC95", "setting": "[6]", "result": 100, "unit": "nM"}, {"measurement": "pIC50", "setting": "[3]", "result": 9.44}, {"measurement": "Cmax", "setting": "[4]", "result": "< 100", "unit": "nM"}, {"measurement": "solubility", "setting": "[5]", "result": "< 1", "unit": "µg/mL"}]}, {"compound": "CC(C)(C)NC(=O)[C@@H]1CN(CC(=O)OC(C)(C)C)CCN1C[C@@H](O)C[C@@H](Cc1ccccc1)C(=O)N[C@@H]1c2ccccc2C[C@H]1O", "values": [{"measurement": "IC95", "setting": "[6]", "result": 100, "unit": "nM"}, {"measurement": "pIC50", "setting": "[3]", "result": 9.09}]}, {"compound": "CCN1CCN(C[C@@H](O)C[C@@H](Cc2ccccc2)C(=O)N[C@@H]2c3ccccc3C[C@H]2O)[C@H](C(=O)NC(C)(C)C)C1", "values": [{"measurement": "IC95", "setting": "[6]", "result": "> 400", "unit": "nM"}, {"measurement": "pIC50", "setting": "[3]", "result": 8.21}]}, {"compound": "CC(C)(C)NC(=O)[C@@H]1CN(CCOCc2ccccc2)CCN1C[C@@H](O)C[C@@H](Cc1ccccc1)C(=O)N[C@@H]1c2ccccc2C[C@H]1O", "values": [{"measurement": "IC95", "setting": "[6]", "result": 100, "unit": "nM"}, {"measurement": "pIC50", "setting": "[3]", "result": 8.99}]}, {"compound": "CC(C)(C)NC(=O)[C@@H]1CCCN1C[C@@H](O)C[C@@H](Cc1ccccc1)C(=O)N[C@@H]1c2ccccc2C[C@H]1O", "values": [{"measurement": "IC95", "setting": "[6]", "result": 1500, "unit": "nM"}, {"measurement": "pIC50", "setting": "[3]", "result": 6.46}]}, {"compound": "CC(C)(C)NC(=O)[C@@H]1CN(C(=O)c2cc3ccccc3oc2=O)CCN1C[C@@H](O)C[C@@H](Cc1ccccc1)C(=O)N[C@@H]1c2ccccc2C[C@H]1O", "values": [{"measurement": "IC95", "setting": "[6]", "result": 50, "unit": "nM"}, {"measurement": "pIC50", "setting": "[3]", "result": 9.89}]}, {"compound": "CC(C)(C)NC(=O)[C@@H]1CCCCN1C[C@@H](O)C[C@@H](Cc1ccccc1)C(=O)N[C@@H]1c2ccccc2C[C@H]1O", "values": [{"measurement": "pIC50", "setting": "[3]", "result": 7.10}]}, {"compound": "CC(C)(C)NC(=O)[C@@H]1CN(Cc2ccncc2)CCN1C[C@@H](O)C[C@@H](Cc1ccccc1)C(=O)N[C@@H]1c2ccccc2C[C@H]1O", "values": [{"measurement": "pIC50", "setting": "[3]", "result": 9.41}, {"measurement": "IC95", "setting": "MT4 [9]", "result": 50, "unit": "nM"}]}, {"compound": "CC(C)(C)NC(=O)[C@@H]1C[C@H](Oc2ccc3ccccc3c2)CN1C[C@@H](O)C[C@@H](Cc1ccccc1)C(=O)N[C@@H]1c2ccccc2C[C@H]1O", "values": [{"measurement": "IC95", "setting": "[6]", "result": "> 400", "unit": "nM"}, {"measurement": "pIC50", "setting": "[3]", "result": 7.82}]}, {"compound": "CC(C)(C)NC(=O)[C@@H]1CN(Cc2ccccc2)CCN1C[C@@H](O)C[C@@H](Cc1ccccc1)C(=O)N[C@@H]1c2ccccc2C[C@H]1O", "values": [{"measurement": "IC95", "setting": "[6]", "result": 50, "unit": "nM"}, {"measurement": "pIC50", "setting": "[3]", "result": 9.52}]}]}
